In patent publication US12709734B2, “Human polarised three-dimensional cellular aggregates” (CAMBRIDGE ENTERPRISE LIMITED, priority 2018, dated 2026):
“Also recorded” adds a separate entry of the source.

What was measured:
[1] = system: hESCs (RUES2-GLR, MasterShef7); assay: Effect of Chiron pre-treatment on adherent hESCs (RT-qPCR, immunostaining); format: cell-based, human
Experimental: We pre-treated hESCs for 1 day in pluripotency medium supplemented with 3-3.5 μM of the Wnt signalling agonist, CHIR99021 (hereafter referred to as Chiron) before aggregation; effectively shifting the Chiron pulse to before the aggregation rather than 48 h after aggregation as is the case in mouse gastruloids (Baillie-Johnson, P., et al., 2015).
(§1) Before aggregation, hESCs cultured in 6-well plates were typically pretreated with 3-3.5 μM CHIR99021 (Chiron) in Nutristem for 24 h, unless otherwise stated.
Adherent cell staining was done using 1:200 Mouse anti-CDH2 (BD Biosciences, BD10920), 1:200 Rat anti-CDH1 (Takara, M108) and 1:200 Rabbit anti-BRACHYURY (AbCam, ab209665) primary antibodies. Quantification was performed using Fiji software on the whole image (histograms) or using a line ROI through the colony (line graph).
Gene expression was analysed from adherent cells using Trizol (Ambion LifeTechnologies) according to manufacturer's instructions. Total RNA was quantified using a NanoDrop 2000C (ThermoScientific) and 5 μg was added to a reverse transcription reaction with Superscript III (Invitrogen) according to manufacturer's instructions. Resultant cDNA was quantified by qPCR with SYBRGreen (Merck) using a liquid handling robot (Qiagility, Qiagen) and analysed on a RotorGeneQ thermocycler (Qiagen). Primer sequences can be found in Supplementary Table 1. Concentration of cDNA was estimated using an in-house MAK2 analysis method.

[2] = system: RUES2-GLR human gastruloids; assay: Human gastruloid formation: elongation and germ layer reporter patterning after pre-treatment; format: cell-based; details: for elongation / BRA expression of gastruloids: 24 h pre-treatment of RUES2-GLR cells in Nutristem with the named factor (Wnt3a 100 ng/ml or BMP4 50 ng/ml instead of Chiron); for SOX2 expression domain / SOX17 expression: Chiron + 10 μM SB431542 24 h pre-treatment vs Chiron only, RUES2-GLR reporter
Experimental: as §1
For signal modulation experiments, RUES2-GLR cells were pre-treated for 1 day in Nutristem supplemented with 100 ng/ml recombinant human Wnt3a (5036-WN-010) or 50 ng/ml BMP4 (314-BP), and aggregated in E6 and ROCK inhibitor with additional supplementation as shown. Subsequent media changes were performed daily with E6 alone. To test the effect of signal modulation on gastruloid formation, RUES2-GLR cells were pre-treated in Nutristem supplemented with 3.25 μM Chiron and one of 1 μM LDN193189 (04-0074), 1 μM XAV-939 (04-0046), or 10 μM SB431542 (1614) before aggregation in E6 with 0.5 μM Chiron and ROCK inhibitor, unless otherwise stated. Subsequent media changes were performed daily with E6 alone.
An alternative, ‘dorsalised’ protocol used 3 μM Chiron, supplemented with 10 μM SB431542 Nodal inhibitor (SB431542) also in Nutristem for 24 h.
After pre-treatment, hESCs at 60-85% confluency were washed twice with PBS−/−. For detachment, 2 ml 0.5 mM EDTA in PBS−/− was applied per well and cells were incubated at 37° C., 5% CO2 for 6.5 min. The plate was then carefully tapped against a solid object to promote detachment and the suspension was pipetted up and down repeatedly (5-10−) with a P1000 to break remaining clumps into single cells.
The suspension was then transferred into a 15 ml centrifuge tube with 8 ml PBS−/− and centrifuged for 3-5 min at 1000 rpm. The supernatant was removed, cells were washed with PBS−/− and spun down again 3-5 min at 1000 rpm. Subsequently, depending on the pellet size, cells were resuspended in 500 μl to 2 ml Essential 6 (E6) medium (Gibco, life technologies) and counted using an automated cell counter (MoxiZ, Orflo). Optimal cell density should be around 1×10^6/ml. The specific number of cells optimized per cell line (400/well for RUES2-TR, 500/well for mSHEF7 and H9TV lines) were then added to E6 supplemented with 5 μM Rock Inhibitor and 3 μM Chiron. Using a multichannel pipette, cells in this suspension were plated in 40 μl per well of an ultra-low adhesion, round bottom 96-well plate (Costar, Corning Inc.). At 24 h after aggregation, 150 μl E6 were added into each well using a multichannel pipette. E6 (see Chen et al., 2011) was continuously exchanged every subsequent day by removing 150 μl per well and adding the same amount.
Human gastruloids made using the RUES2-GLR reporter line were specifically analysed for dynamic reporter expression. An in-house MATLAB script was developed to assess the dynamic fluorescent marker expression along the AP axis of human gastruloids. Widefield images of gastruloids were taken at 24 h, 48 h and 72 h and aligned along their anteroposterior axis with reference to fluorescent reporter expression. For each sample, a binary image was generated in the brightfield channel and used as a mask for all fluorescent channels and the major (length) axis was identified. Consequently, for every pixel along the length axis, the sum of intensity values of the respective channel along the width of the aggregate was divided by the width of the gastruloid at that specific point, yielding the normalized fluorescence intensity along the length of the sample. This process was then repeated for every acquired fluorescent channel. Gastruloids used for this analysis were a full set from one experimental batch, and images were only excluded from the analysis when anteroposterior alignment or binarization were unsuccessful.
In order to quantify the degree of elongation of human gastruloids, brightfield channel widefield images were imported into Fiji (Schindelin et al., 2012). The length of the longest axis was measured using the line tool, followed by the length of the perpendicular axis at the mid-point of the longest axis line. […]

[3] = system: HYS01030 human induced pluripotent stem cell (iPSC) line; assay: Gastruloid formation from human induced pluripotent stem cells; format: cell-based; details: 3.5 uM Chiron 1 day before aggregation, aggregated in Chiron and ROCK inhibitor
Text: FIG. 8: Human gastruloids made from induced pluripotent stem cells. […] 6 representative examples are show. […] There is also some sign of a rosette-like or lumenised structure that expresses SOX2 in the posterior tip (arrowhead). 3 representative examples are shown.
We used a wild type hESC line (mSHEF7; REF) as well as two transgenic lines, the H9TV BRACHYURY-Venus reporter (Mendjan et al., 2014) and RUES2-GLR, the triple reporter for germ layer markers with BRACHYURY-H2B-mCerulean, SOX17-H2B-tdTomato and SOX2-mCitrine (Simunovic et al., 2018). We also used a human induced pluripotent stem cell line, known as HYS01030 (unpublished).

[4] = system: RUES2-GLR human gastruloids; assay: Tomo-sequencing of Chiron vs Chiron+SB431542 pre-treated human gastruloids; format: cell-based
Experimental: An alternative, ‘dorsalised’ protocol used 3 μM Chiron, supplemented with 10 μM SB431542 Nodal inhibitor (SB431542) also in Nutristem for 24 h. Tomo-sequencing was performed and analysed in an updated version of published methods (Junker et al., 2014; and Kruse et al., 2016). In short, gastruloids were sectioned along their AP axis, and the mRNA-content of each section was extracted using SORT-seq (Muraro et al., 2016). Paired end (75 bp) sequencing was performed on the resulting RNA-seq libraries using the Illumina Next-Seq sequencing platform. Read 1 contains the cell or section barcode and the unique molecular identifier (UMI). Read 2 contains the biological information. Reads 2 with a valid cell/section barcode were selected and mapped using STAR-2.5.3a with default parameters to the human GRCh38 genome (ENSEMBL version 93), and only reads mapping to gene bodies (exons or introns) were used for downstream analysis. Reads mapping simultaneously to an exon and to an intron were assigned to the exon. Mappabilities for the different samples range between 44% and 47%. For each cell or section, the number of transcripts was obtained as previously described […]. We refer to transcripts as unique molecules based on UMI correction. […] In each gastruloid, data was then normalized to the median number of unique transcripts per slice, and the z-score of each gene was extracted along sections. The reproducibility of AP expression pattern between different gastruloid replicates was scored for each gene using a random background model to calculate the Pearson correlation coefficient p-value. The p-value threshold to select reproducible genes was set at 0.001. […] Differential gene expression was performed by normalizing the transcripts in each section to 100,000 for all gastruloids; then pooling all sections of each gastruloid together; and finally assessing significant differentially expressed genes based on total expression using the Binomial test. An alternative, ‘dorsalised’ protocol used 3.25 μM Chiron, supplemented with 10 μM SB431542 Nodal inhibitor (SB431542) also in Nutristem for 24 h. They were then aggregated in E6 with 3 μM Chiron and ROCK inhibitor.

[5] = 120 h Chi+SB43 vs 72 h Chiron pre-treated gastruloids
[6] = Chi+SB43 vs Chi pre-treated gastruloids
[7] = Chiron + SB431542 pre-treated vs Chiron pre-treated gastruloids
[8] = of genes reproducible in either or both conditions, Chi+SB43 vs Chi

Cc1c[nH]c(-c2cnc(NCCNc3ccc(C#N)cn3)nc2-c2ccc(Cl)cc2Cl)n1 [Chiron, CHIR99021]
expression of NANOG ([1]; 24 h Chiron pre-treatment vs Nutristem alone, RT-qPCR, RUES2-GLR): increased expression | expression and membrane localisation of CDH1 (E-cadherin) / CDH2 (N-cadherin) ([1]; 24 h Chiron pre-treatment vs Nutristem, immunostaining of adherent colonies): switch in the expression and membrane localisation of CDH1 (E-cadherin) towards CDH2 (N-cadherin; also recorded: increase in the expression of membrane localised CDH2 (N-cadherin) | expression of mesendodermal marker genes (BRA, MIXL1, LEFTY1, LEFTY2, AXIN2, EOMES, CDX1) ([1]; 1 day Chiron pre-treatment vs pluripotency medium alone, RT-qPCR): increased expression | expression of pluripotency markers (POU5F1, SOX2) ([1]; 1 day pre-treatment with 3-3.5 μM Chiron vs pluripotency medium (Nutristem) alone, RT-qPCR): levels equivalent to cells maintained in pluripotency medium alone; also recorded: levels comparable to cells maintained in pluripotency medium alone | levels of SOX2 ([1]; 1 day pre-treatment with 3-3.5 μM Chiron vs pluripotency medium alone, RT-qPCR): slightly reduced | elongation / BRA expression of gastruloids [2]: strictly dependent on the Chiron pre-treatment | aggregates displaying an elongated morphology ([2]; 72 h after aggregation, Chiron pre-treated RUES2-GLR, average of experiments): ~ 66% | morphology of iPSC-derived aggregates [3]: polarised in their morphology at 72 hours

NC(=O)c1ccc(-c2nc(-c3ccc4c(c3)OCO4)c(-c3ccccn3)[nH]2)cc1 [SB431542]
genes reproducibly localised in both conditions [4, 5]: 301 genes | genes with loss of reproducible localisation [4, 5]: 509 genes | genes with novel spatial localisation acquired [4, 5]: 944 genes | expression of HOX genes (HOXC9, HOXA9, HOXC6) and SOX2 [4, 6]: up-regulation | expression of Nodal signalling components and targets [4, 6]: down-regulation | expression of cardiac development genes (TBX5, GATA6, LBX1, NKX2.5) [4, 6]: loss of many genes | expression of definitive endoderm genes (SHH, LHX1, CER1, FOXA3, SORCS2, FOXA2) [4, 6]: decrease in expression | domain-size and level of expression of SOX2 and SOX3 [4, 7]: increase in the domain-size and level of expression | expression of BRA, CYP26A1 and WNT3A in the posterior domain [4, 7]: comparable to the Chiron pre-treated human gastruloids | expression of FOXA2 [4, 7]: very little expression | expression of Node-like markers NODAL, NOTO, PITX2, DAND5 [4, 7]: no detectable expression | expression of asymmetry markers LEFTY1, LEFTY2 and anterior cardiac mesoderm markers GATA4, GATA6, HAND2 [4, 7]: little or no expression | localisation of somitogenesis-like genes (MEOX, TCF15) ([4]; Chiron + SB431542 pre-treated vs Chiron pre-treated gastruloids (central region)): become anteriorly localised | genes differentially expressed between the two treatments [4, 8]: 564 genes | proportion of genes differentially expressed between the two treatments [4, 8]: 33% | BRA expression pattern ([2]; Chiron + 10 μM SB431542 24 h pre-treatment): diffuse expression of BRA that approximated a gradient from anterior to posterior | SOX2 expression domain [2]: distinctly larger domains of SOX2 expression | SOX17 expression [2]: fewer, if any, SOX17 expressing cells | SOX2 expression domain ([2]; listed as SB43): larger, well-defined SOX2 domain at their posterior end | SOX17 expression ([2]; listed as SB43): absence of detectable SOX17 expression | elongation and polarisation of gene expression ([2]; Chiron + 10 μM SB431542 24 h pre-treatment, compared to original method): able to elongate and polarise their gene expression

B1: Wnt3a: recombinant human Wnt3a (protein, UniProt P56704 19-352, looked up)
Protein Wnt-3a: SYPIWWSLAVGPQYSSLGSQPILCASIPGLVPKQLRFCRNYVEIMPSVAEGIKIGIQECQHQFRGRRWNCTTVHDSLAIFGPVLDKATRESAFVHAIASAGVAFAVTRSCAEGTAAICGCSSRHQGSPGKGWKWGGCSEDIEFGGMVSREFADARENRPDARSAMNRHNNEAGRQAIASHMHLKCKCHGLSGSCEVKTCWWSQPDFRAIGDFLKDKYDSASEMVVEKHRESRGWVETLRPRYTYFKVPTERDLVYYEASPNFCEPNPETGSFGTRDRTCNVSSHGIDGCDLLCCGRGHNARAERRREKCRCVFHWCCYVSCQECTRVYDVHTCK
elongation / BRA expression of gastruloids [2]: insufficient to promote elongation or BRA expression

B2: BMP4: BMP4 protein used for pre-treatment, 50 ng/ml (protein, UniProt P12644 293-408, looked up)
Bone morphogenetic protein 4: SPKHHSQRARKKNKNCRRHSLYVDFSDVGWNDWIVAPPGYQAFYCHGDCPFPLADHLNSTNHAIVQTLVNSVNSSIPKACCVPTELSAISMLYLDEYDKVVLKNYQEMVVEGCGCR
elongation / BRA expression of gastruloids [2]: insufficient to promote elongation or BRA expression
